Results as given in patent US10292963B2, “Suppression and treatment of viruses” (priority 2013, dated 2019).

Assay: Additional benefits observed in people taking betaine
Type: in vivo, human
From the text: While the main benefit of a person or pet taking vitamin C and betaine in combination is the prevention/suppression of tumors, as mentioned before, additional benefits can be obtained depending upon the levels taken. Betaine is known to improve cardiovascular health, and can benefit people with fatty deposits in the liver. […] After only a few weeks of taking the betaine, cholesterol levels are reduced and the ability to lose weight is improved.

[1] = after only a few weeks of taking the betaine

C[N+](C)(C)CC(=O)[O-] [betaine, trimethylglycine]
tendency to be light headed on getting up after prolonged squatting or kneeling (after a few doses at about one and a half to about three grams per day, especially older people): considerably lessened
ability to lose weight [1]: improved
cholesterol levels [1]: reduced
